Legend:
[1] = target: T1, AP2-associated protein kinase 1 (Homo sapiens, UniProt Q2M2I8); test: Inhibition of GST-Xa tagged human AAK1 (30 to 330 residues) expresssed in bacteria using (5-FAM)-Aha-KEEQSQITSQVTGQIGWR-NH2 peptide as substrate incubated for 3 hrs in presence of ATP by electrophoretic analysis
[2] = Displacement of 3H-LP-927443 from AAK1 in mouse brain membrane homogenate assessed as inhibition constant at 1 uM incubated for 1 hr by liquid scintillation counter analysis; assay type: cell membranes
[3] = target: T1, AP2-associated protein kinase 1; test: Inhibition of […] in HEK293F cells assessed as reduction in phospho mu2 formation incubated for 3 hrs by Western blot analysis; assay type: cell-based
Cytochrome P450 3A4 = Cytochrome P450 3A4 (Homo sapiens, UniProt P08684); test: Inhibition of CYP3A4 (unknown origin) using BFC as substrate; assay type: ADME
Cytochrome P450 3A4, sequence (P08684 whole entry): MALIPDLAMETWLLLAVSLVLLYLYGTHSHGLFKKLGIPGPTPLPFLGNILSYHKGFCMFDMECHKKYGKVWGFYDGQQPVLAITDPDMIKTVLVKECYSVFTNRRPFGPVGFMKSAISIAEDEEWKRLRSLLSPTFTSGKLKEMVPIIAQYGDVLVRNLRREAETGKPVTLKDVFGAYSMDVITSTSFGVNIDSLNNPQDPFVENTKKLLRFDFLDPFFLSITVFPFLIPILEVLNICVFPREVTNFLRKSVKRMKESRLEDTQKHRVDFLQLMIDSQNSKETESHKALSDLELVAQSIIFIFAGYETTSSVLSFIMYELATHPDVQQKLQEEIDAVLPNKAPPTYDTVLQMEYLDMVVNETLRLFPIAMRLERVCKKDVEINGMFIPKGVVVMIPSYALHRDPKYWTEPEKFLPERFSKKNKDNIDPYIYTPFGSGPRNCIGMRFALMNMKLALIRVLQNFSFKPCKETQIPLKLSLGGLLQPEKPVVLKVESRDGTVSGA

Cytochrome P450 = Cytochrome P450 (Homo sapiens, UniProt P04798+P05177+P05181+P08684+P10632+P10635+P11509+P11712+P13584+P20813+P20815+P20853+P24462+P24903+P33260+P33261+P51589+P78329+P98187+Q02928+Q08477+Q16678+Q16696+Q5TCH4+Q6VVX0+Q7Z449+Q8TAV3+Q96SQ9+Q9HB55); test: Metabolic stability in human liver microsomes assessed as CYP450-mediated metabolism by measuring parent compound remaining at 0.5 uM incubated for 10 mins in presence of NADPH by LC-MS/MS analysis; assay type: ADME; details: read-out: Stability
[4] = Metabolic stability in rat liver microsomes assessed as CYP450-mediated metabolism by measuring parent compound remaining at 0.5 uM incubated for 10 mins in presence of NADPH by LC-MS/MS analysis; assay type: ADME; details: read-out: Stability
[5] = Metabolic stability in mouse liver microsomes assessed as CYP450-mediated metabolism by measuring parent compound remaining at 0.5 uM incubated for 10 mins in presence of NADPH by LC-MS/MS analysis; assay type: ADME; details: read-out: Stability
[6] = Protein binding in human plasma assessed as unbound fraction at 10 uM measured after 5 hrs by LC-MS/MS analysis; assay type: ADME, cell-free
[7] = Protein binding in rat plasma assessed as unbound fraction at 10 uM measured after 5 hrs by LC-MS/MS analysis; assay type: ADME, cell-free
[8] = Protein binding in mouse plasma assessed as unbound fraction at 10 uM measured after 5 hrs by LC-MS/MS analysis; assay type: ADME, cell-free
[9] = Permeability of compound at pH 5.5 measured after 4 hrs by PAMPA assay; assay type: ADME; details: read-out: permeability
[10] = Permeability of compound at pH 7.4 measured after 4 hrs by PAMPA assay; assay type: ADME; details: read-out: permeability
[11] = Permeability across apical to basolateral side in human Caco-2 cells at 3 uM measured after 2 hrs by LC-MS/MS analysis; assay type: ADME, cell-based; details: read-out: permeability
[12] = Permeability across basolateral to apical side in human Caco-2 cells at 3 uM measured after 2 hrs by LC-MS/MS analysis; assay type: ADME, cell-based; details: read-out: permeability
Aorta = test: Cardiotoxicity in rat aortic ring assessed as relaxation of phenylephrine induced aortic ring contraction at 10 uM incubated for 1 hr; assay type: toxicity, tissue-based; parameters: scale not given: the % may be the effect or the level left
Rattus norvegicus = test: Analgesic activity in streptozotocin induced diabetic peripheral neuropathic mechanical allodynia in overnight fasted Sprague-Dawley rat model assessed as reduction in pain response at 1 mg/kg, po measured after 5.5 hrs post treatment; assay type: functional; parameters: scale not given: the % may be the effect or the level left
[13] = Cmax in plasma of overnight fasted Sprague-Dawley rat model of streptozotocin induced diabetic peripheral neuropathic mechanical allodynia at 1 mg/kg, po measured after 5.5 hrs; assay type: ADME, organism-based; parameters: route oral, time 5.5 hrs, dose 1 mg/kg
[14] = Drug concentration in brain of overnight fasted Sprague-Dawley rat model of streptozotocin induced diabetic peripheral neuropathic mechanical allodynia at 1 mg/kg, po measured after 5.5 hrs; assay type: ADME, organism-based; details: read-out: Ct
[15] = Drug concentration in streptozotocin induced diabetic peripheral neuropathic mechanical allodynia in overnight fasted Sprague-Dawley rat spinal cord at 1 mg/kg, po measured after 5.5 hrs; assay type: ADME, organism-based; details: read-out: Ct
[16] = Ratio of drug concentration in brain to plasma in streptozotocin induced diabetic peripheral neuropathic mechanical allodynia in overnight fasted Sprague-Dawley rat at 1 mg/kg, po measured after 5.5 hrs; assay type: ADME, organism-based
[17] = target: MAP kinase-interacting serine/threonine-protein kinase 2 (Homo sapiens, UniProt Q9HBH9); test: Inhibition of MNK2 (unknown origin)
[18] = target: Glycogen synthase kinase-3 alpha (Homo sapiens, UniProt P49840); test: Inhibition of GSK3A (unknown origin)
[19] = target: cGMP-dependent protein kinase 2 (Homo sapiens, UniProt Q13237); test: Inhibition of PKG2 (unknown origin)
cGMP-dependent protein kinase 2, sequence (Q13237 whole entry): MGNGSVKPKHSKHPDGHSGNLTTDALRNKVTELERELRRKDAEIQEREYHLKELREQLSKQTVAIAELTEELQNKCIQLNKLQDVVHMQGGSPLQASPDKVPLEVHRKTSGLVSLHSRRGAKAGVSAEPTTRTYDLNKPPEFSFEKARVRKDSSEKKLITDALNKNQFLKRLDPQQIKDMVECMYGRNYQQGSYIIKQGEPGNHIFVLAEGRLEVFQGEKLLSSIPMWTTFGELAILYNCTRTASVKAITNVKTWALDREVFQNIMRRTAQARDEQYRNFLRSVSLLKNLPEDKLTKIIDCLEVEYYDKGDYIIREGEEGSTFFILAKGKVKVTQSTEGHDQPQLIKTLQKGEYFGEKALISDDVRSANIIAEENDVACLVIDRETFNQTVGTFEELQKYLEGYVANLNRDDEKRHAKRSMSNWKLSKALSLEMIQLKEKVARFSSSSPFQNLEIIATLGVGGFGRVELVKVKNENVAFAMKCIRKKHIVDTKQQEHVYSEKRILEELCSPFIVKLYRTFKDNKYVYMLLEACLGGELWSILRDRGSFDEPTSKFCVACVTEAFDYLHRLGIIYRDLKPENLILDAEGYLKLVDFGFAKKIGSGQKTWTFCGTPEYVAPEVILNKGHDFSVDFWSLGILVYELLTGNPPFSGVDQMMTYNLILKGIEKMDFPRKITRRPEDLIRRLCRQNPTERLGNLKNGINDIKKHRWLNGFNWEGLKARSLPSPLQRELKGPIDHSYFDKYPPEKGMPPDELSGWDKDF

[20] = Inhibition of PCKA (unknown origin); parameters: species or system Homo sapiens
[21] = target: BMP-2-inducible protein kinase (Homo sapiens, UniProt Q9NSY1); test: Inhibition of BIKE (unknown origin)
BMP-2-inducible protein kinase, sequence (Q9NSY1 whole entry): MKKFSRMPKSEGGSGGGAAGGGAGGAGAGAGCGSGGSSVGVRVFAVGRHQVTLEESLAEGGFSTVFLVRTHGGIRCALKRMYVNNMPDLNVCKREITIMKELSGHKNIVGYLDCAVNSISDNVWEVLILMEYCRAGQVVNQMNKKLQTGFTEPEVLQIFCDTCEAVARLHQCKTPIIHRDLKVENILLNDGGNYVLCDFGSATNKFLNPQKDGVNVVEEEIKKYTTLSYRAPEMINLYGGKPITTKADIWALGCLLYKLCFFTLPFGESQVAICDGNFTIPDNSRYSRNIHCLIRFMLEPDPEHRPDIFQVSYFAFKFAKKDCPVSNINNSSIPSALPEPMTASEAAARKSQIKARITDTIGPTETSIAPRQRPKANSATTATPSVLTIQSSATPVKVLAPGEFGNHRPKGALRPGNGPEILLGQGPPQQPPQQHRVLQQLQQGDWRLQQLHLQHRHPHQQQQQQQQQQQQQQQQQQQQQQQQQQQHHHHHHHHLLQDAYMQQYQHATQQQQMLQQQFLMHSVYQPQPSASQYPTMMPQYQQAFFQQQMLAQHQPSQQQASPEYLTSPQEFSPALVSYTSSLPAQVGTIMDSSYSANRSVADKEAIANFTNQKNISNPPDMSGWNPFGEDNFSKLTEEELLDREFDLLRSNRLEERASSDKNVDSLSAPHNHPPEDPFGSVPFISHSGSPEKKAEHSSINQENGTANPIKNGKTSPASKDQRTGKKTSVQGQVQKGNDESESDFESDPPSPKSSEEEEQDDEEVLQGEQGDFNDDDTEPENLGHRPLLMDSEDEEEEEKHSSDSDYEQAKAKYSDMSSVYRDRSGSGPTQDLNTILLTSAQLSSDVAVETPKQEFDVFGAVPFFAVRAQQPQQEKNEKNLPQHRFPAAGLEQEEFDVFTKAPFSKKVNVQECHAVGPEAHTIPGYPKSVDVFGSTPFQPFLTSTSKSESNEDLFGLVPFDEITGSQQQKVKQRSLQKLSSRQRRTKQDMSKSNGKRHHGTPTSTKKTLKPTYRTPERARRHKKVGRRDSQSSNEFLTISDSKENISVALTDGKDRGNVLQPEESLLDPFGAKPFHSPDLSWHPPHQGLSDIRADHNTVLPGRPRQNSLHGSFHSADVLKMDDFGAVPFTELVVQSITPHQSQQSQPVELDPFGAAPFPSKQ

[22] = target: Cyclin-G-associated kinase (Homo sapiens, UniProt O14976); test: Inhibition of GAK (unknown origin)
[23] = target: Citron Rho-interacting kinase (Homo sapiens, UniProt O14578); test: Inhibition of CRIK (unknown origin)
[24] = target: MAP kinase-interacting serine/threonine-protein kinase 1 (Homo sapiens, UniProt Q9BUB5); test: Inhibition of MNK1 (unknown origin)
MAP kinase-interacting serine/threonine-protein kinase 1, sequence (Q9BUB5 whole entry): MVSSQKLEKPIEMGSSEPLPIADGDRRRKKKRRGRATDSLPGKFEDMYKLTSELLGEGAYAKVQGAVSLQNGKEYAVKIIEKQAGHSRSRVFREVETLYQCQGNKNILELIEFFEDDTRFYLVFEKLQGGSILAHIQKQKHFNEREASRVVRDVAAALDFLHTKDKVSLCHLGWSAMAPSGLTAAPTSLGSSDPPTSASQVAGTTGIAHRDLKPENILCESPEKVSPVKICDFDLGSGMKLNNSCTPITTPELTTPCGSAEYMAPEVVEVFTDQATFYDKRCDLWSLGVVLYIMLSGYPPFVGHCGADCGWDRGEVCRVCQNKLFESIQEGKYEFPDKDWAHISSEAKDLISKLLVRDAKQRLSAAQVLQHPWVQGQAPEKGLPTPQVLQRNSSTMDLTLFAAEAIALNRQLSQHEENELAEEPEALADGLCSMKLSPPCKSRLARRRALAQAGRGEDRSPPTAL

[25] = target: Serine/threonine-protein kinase N2 (Homo sapiens, UniProt Q16513); test: Inhibition of PRK2 (unknown origin)
Serine/threonine-protein kinase N2, sequence (Q16513 whole entry): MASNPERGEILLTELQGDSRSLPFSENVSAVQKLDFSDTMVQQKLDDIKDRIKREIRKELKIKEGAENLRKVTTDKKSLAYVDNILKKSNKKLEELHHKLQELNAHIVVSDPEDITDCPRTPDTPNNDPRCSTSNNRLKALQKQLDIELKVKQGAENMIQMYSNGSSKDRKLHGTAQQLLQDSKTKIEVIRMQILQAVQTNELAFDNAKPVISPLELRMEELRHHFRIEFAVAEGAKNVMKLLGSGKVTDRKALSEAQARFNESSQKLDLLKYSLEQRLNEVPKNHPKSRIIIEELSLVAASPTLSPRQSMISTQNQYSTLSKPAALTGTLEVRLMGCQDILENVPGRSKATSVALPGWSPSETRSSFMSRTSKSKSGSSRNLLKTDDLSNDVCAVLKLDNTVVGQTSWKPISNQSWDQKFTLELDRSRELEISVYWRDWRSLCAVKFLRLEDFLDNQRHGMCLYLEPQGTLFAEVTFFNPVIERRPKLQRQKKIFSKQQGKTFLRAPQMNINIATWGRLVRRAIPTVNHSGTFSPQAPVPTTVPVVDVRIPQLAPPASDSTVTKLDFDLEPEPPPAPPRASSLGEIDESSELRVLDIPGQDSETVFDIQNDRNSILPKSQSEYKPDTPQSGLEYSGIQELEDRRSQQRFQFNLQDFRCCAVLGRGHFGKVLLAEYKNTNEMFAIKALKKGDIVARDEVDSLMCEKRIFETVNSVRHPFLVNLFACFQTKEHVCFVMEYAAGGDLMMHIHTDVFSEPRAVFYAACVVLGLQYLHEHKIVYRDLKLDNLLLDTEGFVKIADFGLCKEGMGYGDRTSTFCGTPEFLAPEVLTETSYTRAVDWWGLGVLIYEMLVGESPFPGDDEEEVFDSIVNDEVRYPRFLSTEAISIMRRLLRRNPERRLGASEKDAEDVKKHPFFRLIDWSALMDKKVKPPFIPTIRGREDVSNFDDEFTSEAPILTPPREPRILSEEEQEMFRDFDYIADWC

[26] = target: Rho-associated protein kinase 2 (Homo sapiens, UniProt O75116); test: Inhibition of ROCK2 (unknown origin)
[27] = Toxicity in naive Sprague-Dawley rat assessed as motor impairment at 100 mg/kg, po measured after 5 hrs by rotarod test; assay type: organism-based; details: in vivo

T1 sequence (Q2M2I8 whole entry, the tested form may be a part): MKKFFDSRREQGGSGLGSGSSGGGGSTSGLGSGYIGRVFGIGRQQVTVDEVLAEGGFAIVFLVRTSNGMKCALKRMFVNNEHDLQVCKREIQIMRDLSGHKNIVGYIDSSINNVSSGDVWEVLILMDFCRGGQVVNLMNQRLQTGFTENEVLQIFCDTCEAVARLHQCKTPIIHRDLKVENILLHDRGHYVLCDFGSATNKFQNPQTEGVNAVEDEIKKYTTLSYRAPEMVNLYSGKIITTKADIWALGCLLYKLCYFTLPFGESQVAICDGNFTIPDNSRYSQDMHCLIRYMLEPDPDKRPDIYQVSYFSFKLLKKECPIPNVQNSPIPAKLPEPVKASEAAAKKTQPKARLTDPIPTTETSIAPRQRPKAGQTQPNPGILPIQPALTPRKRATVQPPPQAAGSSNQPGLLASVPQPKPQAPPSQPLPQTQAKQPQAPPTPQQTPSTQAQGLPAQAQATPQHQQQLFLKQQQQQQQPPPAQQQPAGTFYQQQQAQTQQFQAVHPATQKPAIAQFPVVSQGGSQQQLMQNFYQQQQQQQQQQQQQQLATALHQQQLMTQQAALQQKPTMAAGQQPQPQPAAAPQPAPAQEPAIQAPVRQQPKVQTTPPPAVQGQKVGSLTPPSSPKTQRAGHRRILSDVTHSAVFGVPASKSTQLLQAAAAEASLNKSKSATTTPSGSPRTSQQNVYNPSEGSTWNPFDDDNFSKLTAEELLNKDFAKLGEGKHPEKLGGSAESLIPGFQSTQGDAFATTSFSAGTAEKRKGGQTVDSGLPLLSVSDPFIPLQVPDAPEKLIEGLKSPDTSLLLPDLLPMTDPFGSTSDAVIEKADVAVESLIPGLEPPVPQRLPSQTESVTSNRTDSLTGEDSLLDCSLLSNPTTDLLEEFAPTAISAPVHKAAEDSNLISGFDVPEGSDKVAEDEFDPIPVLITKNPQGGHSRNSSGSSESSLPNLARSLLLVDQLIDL

Row | SMILES | IC50 [1] | Ki [2] | IC50 [3] | IC50 (Cytochrome P450 3A4) | remaining at 10 min, 0.5 µM (Cytochrome P450) | remaining at 10 min, 0.5 µM [4] | remaining at 10 min, 0.5 µM [5] | Activity (Aorta) | also measured
1 | Cc1cc(-c2ccc(OC[C@@](C)(N)CC(C)C)c(C(F)(F)F)c2)ccn1 | 0.9 nM | 0.22 nM | 25 nM | > 20000 nM | 89% | 86% | 66% | 69% | fraction unbound at 5 h, 10 µM [6]: 0.02; fraction unbound at 5 h, 10 µM [7]: 0.026; fraction unbound at 5 h, 10 µM [8]: 0.017; Papp at 4 h [9]: 36 ×10⁻⁶ cm/s; Papp at 4 h [10]: 30.5 ×10⁻⁶ cm/s; Papp A→B at 2 h, 3 µM [11]: 7.1 ×10⁻⁶ cm/s; Papp B→A at 2 h, 3 µM [12]: 5.9 ×10⁻⁶ cm/s
2 | CC(C)C[C@](C)(N)COc1ccc(-c2ccncc2)cc1C(F)(F)F | 0.6 nM | 0.17 nM | 29 nM | 630 nM | – | – | – | – | –
3 | CC(C)C[C@](C)(N)COc1ncc(-c2ccnc(C(F)F)c2)cc1C#N | – | – | – | – | – | – | – | 50% | –
4 | Cc1cc(-c2cnc(OC[C@@](C)(N)CC(C)C)c(C#N)c2)ccn1 | – | – | – | – | – | – | – | 28% | –
5 | CC(C)C[C@H](N)COc1ccc(-c2ccncc2)cc1 | – | – | – | 8700 nM | – | – | – | – | –
6 | CC(C)C[C@H](N)COc1ccc(-c2ccnc(C(F)(F)F)c2)cc1C#N | – | – | – | 1300 nM | – | – | – | – | –
7 | CC(C)C[C@](C)(N)COc1ncc(-c2ccnc(Cl)c2)cc1C(F)F | 3.1 nM | – | 9.1 nM | – | 89% | 88% | 76% | – | –
8 | Cc1cc(-c2cnc(OC[C@@](C)(N)CC(C)C)c(C(F)F)c2)ccn1 | 1.9 nM | – | – | – | 43% | 65% | 43% | – | –
9 | CC(C)C[C@](C)(N)COc1ccc(-c2ccnc(C(F)F)c2)cc1C(F)(F)F | 0.6 nM | 0.07 nM | 7.8 nM | 18000 nM | 94% | 92% | 98% | – | fraction unbound at 5 h, 10 µM [6]: 0.008; fraction unbound at 5 h, 10 µM [7]: 0.004; fraction unbound at 5 h, 10 µM [8]: 0.002; Papp at 4 h [9]: 33.9 ×10⁻⁶ cm/s; Papp at 4 h [10]: 55 ×10⁻⁶ cm/s; Papp A→B at 2 h, 3 µM [11]: 3.3 ×10⁻⁶ cm/s; Papp B→A at 2 h, 3 µM [12]: 1.7 ×10⁻⁶ cm/s; Activity (Rattus norvegicus): 30%; Cmax [13]: 80 nM; concentration at 5.5 h [14]: 880 nM; concentration at 5.5 h [15]: 510 nM; Kp at 5.5 h [16]: 11; IC50 [17]: 380 nM; IC50 [18]: 1700 nM; IC50 [19]: 380 nM
10 | CC(C)C[C@](C)(N)COc1ccc(-c2ccnc(C(F)F)c2)nc1Cl | – | – | – | – | – | – | – | 64% | –
11 | CC(C)C[C@](C)(N)COc1ccc(-c2ccnc(C(F)F)c2)cc1C#N | 0.6 nM | 0.25 nM | 6.4 nM | > 20000 nM | 85% | 71% | 97% | 100% | fraction unbound at 5 h, 10 µM [6]: 0.14; fraction unbound at 5 h, 10 µM [7]: 0.14; fraction unbound at 5 h, 10 µM [8]: 0.079; Papp at 4 h [9]: 68.1 ×10⁻⁶ cm/s; Papp at 4 h [10]: 68.7 ×10⁻⁶ cm/s; Papp A→B at 2 h, 3 µM [11]: 22.2 ×10⁻⁶ cm/s; Papp B→A at 2 h, 3 µM [12]: 17.7 ×10⁻⁶ cm/s
12 | Cc1cc(-c2ccc(OC[C@@](C)(N)CC(C)C)c(C(F)F)n2)ccn1 | 2.9 nM | 1.1 nM | 11 nM | – | 81% | 82% | 71% | 26% | –
13 | Cc1cc(-c2ccc(OC[C@@H](N)CC(C)C)c(C#N)c2)ccn1 | 0.8 nM | 0.71 nM | 89 nM | 2400 nM | – | – | – | – | –
14 | Cc1cc(-c2ccc(OC[C@@](C)(N)CC(C)C)c(C#N)c2)ccn1 | – | – | – | > 20000 nM | – | – | – | – | –
15 | CC(C)C[C@](C)(N)COc1ccc(-c2ccnc(Cl)c2)nc1C(F)F | 3.9 nM | – | – | – | 97% | 87% | 85% | 59% | –
16 | CC(C)C[C@](C)(N)COc1ccc(-c2ccnc(F)c2)cc1C(F)(F)F | – | – | – | > 20000 nM | – | – | – | – | –
17 | CC(C)C[C@](C)(N)COc1ccc(-c2ccnc(C(F)F)c2)cc1C(F)F | 0.4 nM | 0.04 nM | 0.9 nM | 16000 nM | 96% | 83% | – | 84% | IC50 [20]: 580 nM; fraction unbound at 5 h, 10 µM [6]: 0.046; fraction unbound at 5 h, 10 µM [7]: 0.045; fraction unbound at 5 h, 10 µM [8]: 0.018; Papp at 4 h [9]: 99.9 ×10⁻⁶ cm/s; Papp at 4 h [10]: 42.7 ×10⁻⁶ cm/s; Papp A→B at 2 h, 3 µM [11]: 10.8 ×10⁻⁶ cm/s; Papp B→A at 2 h, 3 µM [12]: 6.2 ×10⁻⁶ cm/s; IC50 [21]: 280 nM; IC50 [22]: 73 nM; IC50 [23]: 56 nM; IC50 [24]: 180 nM; IC50 [19]: 420 nM; IC50 [25]: 440 nM; IC50 [26]: 420 nM
18 | Cc1cc(-c2ccc(OC[C@@](C)(N)CC(C)C)c(C)n2)ccn1 | 36 nM | 7.2 nM | – | – | 95% | 83% | 78% | 1% | –
19 | Cc1cc(-c2ccc(OC[C@@](C)(N)CC(C)C)c(C3CC3)c2)ccn1 | – | – | – | > 20000 nM | – | – | – | – | –
20 | COc1cc(-c2ccc(OC[C@@H](N)CC(C)C)c(C#N)c2)ccn1 | – | – | – | 540 nM | – | – | – | – | –
21 | Cc1cc(-c2ccc(OC[C@@](C)(N)CC(C)C)c(C(F)F)c2)ccn1 | 0.4 nM | 0.08 nM | 0.8 nM | > 20000 nM | 74% | 81% | 69% | 57% | fraction unbound at 5 h, 10 µM [6]: 0.037; fraction unbound at 5 h, 10 µM [7]: 0.031; fraction unbound at 5 h, 10 µM [8]: 0.02; Papp at 4 h [9]: 69.7 ×10⁻⁶ cm/s; Papp at 4 h [10]: 31.9 ×10⁻⁶ cm/s; Papp A→B at 2 h, 3 µM [11]: 9.5 ×10⁻⁶ cm/s; Papp B→A at 2 h, 3 µM [12]: 6 ×10⁻⁶ cm/s
22 | CC(C)C[C@](C)(N)COc1ccc(-c2ccnc(C(F)F)c2)cc1C1CC1 | – | – | – | > 20000 nM | – | – | – | – | Papp at 4 h [9]: 78.4 ×10⁻⁶ cm/s
23 | NCC1(CC(=O)O)CCCCC1 [GABAPENTIN] | – | – | – | – | – | – | – | – | Activity [27]: Non-Toxic

Reference: ChEMBL document CHEMBL5046296 (J Med Chem, 2022)
